# Measured values reported in US20260041095A1, “A PRESERVATION METHOD” (AnalytiCon Discovery - Zweigniederlassung der BRAIN Biotech …, priority 2022, published 2026).
# Experiments:
# Type in all cases: cell-based
# Asaia siamensis SUN03 = experiment: Antimicrobial activity (MIC), Asaia siamensis SUN03; conditions: potato dextrose broth pH 3.8, visual evaluation; for MIC: read-out: Minimal Inhibitory Concentration (MIC)
# [1] = system: Alicyclobacillus acidoterrestris DSM 2498; experiment: Antimicrobial activity (MIC), Alicyclobacillus acidoterrestris DSM 2498; conditions: DSM2498, potato dextrose broth pH 3.8, visual evaluation, read-out: Minimal Inhibitory Concentration (MIC)
# [2] = system: Bacillus subtilis ATCC 6633; experiment: Antimicrobial activity (MIC), Bacillus subtilis ATCC 6633; conditions: ATCC6633, potato dextrose broth pH 3.8, visual evaluation, read-out: Minimal Inhibitory Concentration (MIC)
# Brettanomyces sp SUN08 = experiment: Antimicrobial activity (MIC), Brettanomyces sp SUN08; conditions: potato dextrose broth pH 3.8, visual evaluation, read-out: Minimal Inhibitory Concentration (MIC)
# Byssochlamys nivea SUN10 = experiment: Antimicrobial activity (MIC), Byssochlamys nivea SUN10; conditions: Paecilomyces niveus, potato dextrose broth pH 3.8, visual evaluation, read-out: Minimal Inhibitory Concentration (MIC)
# [3] = system: Candida parapsilosis SUN05; experiment: Antimicrobial activity (MIC), Candida parapsilosis SUN05; conditions: Lodderomyces parapsilosis, potato dextrose broth pH 3.8, visual evaluation, read-out: Minimal Inhibitory Concentration (MIC)
# [4] = system: Leuconostoc lactis DSM 20202; experiment: Antimicrobial activity (MIC), Leuconostoc lactis DSM 20202; conditions: DSM20202, potato dextrose broth pH 3.8, visual evaluation, read-out: Minimal Inhibitory Concentration (MIC)
# [5] = system: Neosartorya fischeri SUN09; experiment: Antimicrobial activity (MIC), Neosartorya fischeri SUN09; conditions: Aspergillus fischeri, potato dextrose broth pH 3.8, visual evaluation, read-out: Minimal Inhibitory Concentration (MIC)
# Penicillium paneum SUN04 = experiment: Antimicrobial activity (MIC), Penicillium paneum SUN04; conditions: potato dextrose broth pH 3.8, visual evaluation, read-out: Minimal Inhibitory Concentration (MIC)
# [6] = system: Saccharomyces cerevisiae SUN01; experiment: Antimicrobial activity (MIC), Saccharomyces cerevisiae SUN01; conditions: potato dextrose broth pH 3.8, visual evaluation, read-out: Minimal Inhibitory Concentration (MIC)
# [7] = system: Saccharomyces cerevisiae SUN06; experiment: Antimicrobial activity (MIC), Saccharomyces cerevisiae SUN06; conditions: potato dextrose broth pH 3.8, visual evaluation, read-out: Minimal Inhibitory Concentration (MIC)
# [8] = system: Zygosaccharomyces bailli SUN02; experiment: Antimicrobial activity (MIC), Zygosaccharomyces bailli SUN02; conditions: potato dextrose broth pH 3.8, visual evaluation, read-out: Minimal Inhibitory Concentration (MIC)
# [9] = system: Zygosaccharomyces bailli SUN07; experiment: Antimicrobial activity (MIC), Zygosaccharomyces bailli SUN07; conditions: potato dextrose broth pH 3.8, visual evaluation, read-out: Minimal Inhibitory Concentration (MIC)
# [10] = system: Clostridium sporogenes ATCC19404; experiment: Antimicrobial activity (MIC), Clostridium sporogenes ATCC19404; conditions: potato dextrose broth pH 3.8, visual evaluation, read-out: Minimal Inhibitory Concentration (MIC)
# Procedure: Compounds are dissolved at a concentration of 20 mg/mL using 100% DMSO. • Preculture: yeast and bacteria are plated on potato dextrose agar, resuspended in potato dextrose broth and CFU via OD measurement determined; adjusting CFU of the strain in PDB pH 3.8 • Preculture: for mycel forming fungi spores were directly used after thawing of cryopreserved stocks of known titre • Final titre used for the assay: Yeast strains 5*10^3 CFU/ml, Bacteria 1*10^6 CFU/ml, Fungi (spores) 5*10^4 CFU/ml • Potato dextrose broth pH 3.8 was used as assay matrix • 500 ppm (0.05%) of the compounds were screened (final DMSO 2.5% (v/v)) • Volume: 100 μl in 96-well format • Positive controls: potassium sorbate, sodium benzoate & triclosan • 28° C. to 30° C., static incubation • Incubation time depending on spoilage organism between 2 and 8 days • Visual evaluation (per eye, for fungi with binocular magnification)
# [11] = system: Enterococcus faecalis ATCC 7080; experiment: Antimicrobial activity (MIC), Enterococcus faecalis ATCC 7080; conditions: ATCC7080, potato dextrose broth pH 3.8, visual evaluation, read-out: Minimal Inhibitory Concentration (MIC)
# [12] = system: Gluconacetobacter liquefaciens DSM 5603; experiment: Antimicrobial activity (MIC), Gluconacetobacter liquefaciens DSM 5603; conditions: DSM5603, potato dextrose broth pH 3.8, visual evaluation, read-out: Minimal Inhibitory Concentration (MIC)
# [13] = system: Aspergillus brasiliensis DSM 1988; experiment: Antimicrobial activity (MIC), Aspergillus brasiliensis DSM 1988; conditions: DSM1988, potato dextrose broth pH 3.8, visual evaluation, read-out: Minimal Inhibitory Concentration (MIC)
# [14] = system: Bacillus licheniformis DSM 13; experiment: Antimicrobial activity (MIC), Bacillus licheniformis DSM 13; conditions: DSM13, potato dextrose broth pH 3.8, visual evaluation, read-out: Minimal Inhibitory Concentration (MIC)
# [15] = system: Candida albicans ATCC10231; experiment: Antimicrobial activity (MIC), Candida albicans ATCC10231; conditions: potato dextrose broth pH 3.8, visual evaluation, read-out: Minimal Inhibitory Concentration (MIC)
# [16] = system: Candida parapsilosis ATCC 20384; experiment: Antimicrobial activity (MIC), Candida parapsilosis ATCC 20384; conditions: Lodderomyces parapsilosis, ATCC20384, potato dextrose broth pH 3.8, visual evaluation, read-out: Minimal Inhibitory Concentration (MIC)
# [17] = system: Clostridium perfringens DSM756; experiment: microbe, parasite or virus in culture; conditions: DSM756, pH 3.8, read-out: Minimal Inhibitory Concentration (MIC)
# [18] = system: Corynebacterium xerosis DSM 20743; experiment: Antimicrobial activity (MIC), Corynebacterium xerosis DSM 20743; conditions: DSM20743, potato dextrose broth pH 3.8, visual evaluation, read-out: Minimal Inhibitory Concentration (MIC)
# [19] = system: Dekkera naardenensis CBS 6115; experiment: Antimicrobial activity (MIC), Dekkera naardenensis CBS 6115; conditions: Brettanomyces naardenensis, CBS6115, potato dextrose broth pH 3.8, visual evaluation, read-out: Minimal Inhibitory Concentration (MIC)
# [20] = system: Lactobacillus paracasei ssp. paracasei DSM 46331; experiment: Antimicrobial activity (MIC), Lactobacillus paracasei ssp. paracasei DSM 46331; conditions: Lacticaseibacillus paracasei, DSM46331, potato dextrose broth pH 3.8, visual evaluation, read-out: Minimal Inhibitory Concentration (MIC)
# [21] = system: Leuconostoc mesenteroides DSM 20343; experiment: Antimicrobial activity (MIC), Leuconostoc mesenteroides DSM 20343; conditions: DSM20343, potato dextrose broth pH 3.8, visual evaluation, read-out: Minimal Inhibitory Concentration (MIC)
# [22] = system: Malassezia furfur DSM 6170; experiment: Antimicrobial activity (MIC), Malassezia furfur DSM 6170; conditions: DSM6170, potato dextrose broth pH 3.8, visual evaluation, read-out: Minimal Inhibitory Concentration (MIC)
# [23] = system: Penicillium expansum DSM 62841; experiment: Antimicrobial activity (MIC), Penicillium expansum DSM 62841; conditions: DSM62841, potato dextrose broth pH 3.8, visual evaluation, read-out: Minimal Inhibitory Concentration (MIC)
# [24] = system: Saccharomyces cerevisiae DSM 2548; experiment: Antimicrobial activity (MIC), Saccharomyces cerevisiae DSM 2548; conditions: DSM2548, potato dextrose broth pH 3.8, visual evaluation, read-out: Minimal Inhibitory Concentration (MIC)
# [25] = system: Yarrowia lipolytica DSM 70561; experiment: Antimicrobial activity (MIC), Yarrowia lipolytica DSM 70561; conditions: DSM70561, potato dextrose broth pH 3.8, visual evaluation, read-out: Minimal Inhibitory Concentration (MIC)
# [26] = system: Zygosaccharomyces bailii DSM 70834; experiment: Antimicrobial activity (MIC), Zygosaccharomyces bailii DSM 70834; conditions: DSM70834, potato dextrose broth pH 3.8, visual evaluation, read-out: Minimal Inhibitory Concentration (MIC)
# [27] = system: Zygosaccharomyces rouxii DSM 7525; experiment: Antimicrobial activity (MIC), Zygosaccharomyces rouxii DSM 7525; conditions: DSM7525, potato dextrose broth pH 3.8, visual evaluation, read-out: Minimal Inhibitory Concentration (MIC)
# [28] = system: Byssochlamys fulva DSM 1808; experiment: Antimicrobial activity (MIC), Byssochlamys fulva DSM 1808; conditions: Paecilomyces fulvus, DSM1808, potato dextrose broth pH 3.8, visual evaluation, read-out: Minimal Inhibitory Concentration (MIC)
SMILES,MIC (Asaia siamensis SUN03),MIC [1],MIC [2],MIC (Brettanomyces sp SUN08),MIC (Byssochlamys nivea SUN10),MIC [3],MIC [4],MIC [5],MIC (Penicillium paneum SUN04),MIC [6],MIC [7],MIC [8],MIC [9],MIC [10],MIC [11],MIC [15],MIC [18],MIC [19],MIC [20],MIC [21],other results
O=C(O)OC[C@H]1O[C@@H](OCC(O)CCCCCCCCCCC/C=C(\O)C(=O)O)[C@H](O)[C@@H](O)[C@@H]1O[C@@H]1O[C@H](CO)[C@@H](O)[C@H](O)[C@H]1OC(=O)CC(O)CCO (some centres unmarked) [NP-018756],> 500 µg/mL,16 µg/mL,600 µg/mL,250 µg/mL,≤ 125 µg/mL,500 µg/mL,600 µg/mL,≤ 125 µg/mL,250 µg/mL,250 µg/mL,250 µg/mL,250 µg/mL,250 µg/mL,–,–,–,–,–,–,–,–
O=C(O)CCCCCCCCCCCCCC(O)CO[C@@H]1O[C@H](COC(=O)O)[C@@H](O[C@@H]2O[C@H](CO)[C@@H](O)[C@H](O)[C@H]2OC(=O)CC(O)CCO)[C@H](O)[C@H]1O (some centres unmarked) [NP-018250],≤ 125 µg/mL,–,250 µg/mL,125 µg/mL,125 µg/mL,125 µg/mL,250 µg/mL,125 µg/mL,125 µg/mL,125 µg/mL,125 µg/mL,125 µg/mL,125 µg/mL,250 µg/mL,250 µg/mL,–,–,–,–,–,MIC [12]: 250 µg/mL
CCCCCC(O)CC(=O)O[C@H]1[C@H](O[C@H]2[C@H](O)[C@@H](O)[C@H](OCC(O)CCCCCCCCCCCCC(O)C(=O)O)O[C@@H]2COC(C)=O)O[C@H](CO)[C@@H](O)[C@@H]1O (some centres unmarked) [NP-018256],–,240 µg/mL,–,≤ 125 µg/mL,≤ 125 µg/mL,≤ 125 µg/mL,240 µg/mL,≤ 125 µg/mL,≤ 125 µg/mL,≤ 125 µg/mL,≤ 125 µg/mL,≤ 125 µg/mL,500 µg/mL,80 µg/mL,–,80 µg/mL,1200 µg/mL,80 µg/mL,240 µg/mL,240 µg/mL,Minimal Inhibitory Concentration (MIC) (Asaia siamensis SUN03): inact.; MIC [13]: 240 µg/mL; MIC [14]: 240 µg/mL; MIC [16]: 240 µg/mL; MIC [17]: 80 µg/mL; MIC [22]: 80 µg/mL; MIC [23]: 240 µg/mL; MIC [24]: 240 µg/mL; MIC [25]: 240 µg/mL; MIC [26]: 80 µg/mL; MIC [27]: 80 µg/mL
CCCC(O)CC(=O)O[C@H]1[C@H](O[C@H]2[C@H](O)[C@@H](O)[C@H](OCC(O)CCCCCCCCCCCCC(O)C(=O)O)O[C@@H]2COC(C)=O)O[C@H](CO)[C@@H](O)[C@@H]1O (some centres unmarked) [NP-018217],500 µg/mL,240 µg/mL,600 µg/mL,≤ 125 µg/mL,≤ 31.2 µg/mL,≤ 125 µg/mL,250 µg/mL,≤ 31.2 µg/mL,≤ 31.2 µg/mL,≤ 125 µg/mL,≤ 125 µg/mL,≤ 125 µg/mL,500 µg/mL,80 µg/mL,240 µg/mL,80 µg/mL,240 µg/mL,240 µg/mL,80 µg/mL,240 µg/mL,MIC [28]: 80 µg/mL; MIC [22]: 80 µg/mL; MIC [23]: 240 µg/mL; MIC [24]: 240 µg/mL; MIC [25]: 240 µg/mL; MIC [26]: 80 µg/mL; MIC [27]: 240 µg/mL
